Source: patent US4451650A, “Pyrido[4,3-b][1,4]oxazines and pyrido[4,3-b][1,4]thiazines” (Southern Research Institute, priority 1982, dated 1984)

Columns and labels:
[1] = tested on: Lymphocytic leukemia P388; test: Increase in life span, lymphocytic leukemia P388, 10^6 tumor cell implant, i.p.; assay type: in vivo; details: Mus musculus, P388, ip, schedule 1-5, read-out: P388 % ILS (increase in life span at the highest nontoxic dose)
Excerpt: ^c Lymphocytic leukemia P388.
^d Increase in life span at the highest nontoxic dose.

[2] = tested on: lymphoid leukemia L1210 cells; test: Mitotic index (fraction of cells in mitosis) of cultured lymphoid leukemia L1210 cells, 12 hours exposure; assay type: cell-based; details: Mus musculus, exposure period of 12 hours, read-out: L1210 MI0.5 (concentration of agent that causes a mitotic index of 0.5)
Experimental: ^b Concentration of agent that causes a mitotic index (fraction of
cells in mitosis divided by total cells) of 0.5 for cultured lymphoid
leukemia L1210 cells during an exposure period of 12 hours [Wheeler, G.
P., Bowden, B. J., Werline, J. A., Adamson, D. J., and Temple, C., Jr.,

[3] = tested on: lymphoid leukemia L1210 cells; test: Inhibition of proliferation of cultured lymphoid leukemia L1210 cells (48 hours); assay type: cell-based; details: read-out: L1210 ID50 (concentration of agent that inhibits proliferation of cultured lymphoid leukemia L1210 cells to 50% control growth during 48 hours)
Experimental: ^a Concentration of agent that inhibits proliferation of cultured
lymphoid leukemia L1210 cells to 50% control growth during 48 hours
[Wheeler, G. P., Bowdon, B. J., Werline, J. A., Adamson, D. J., and
Temple, C., Jr., Cancer Research, 1982, 42, 791].

SMILES	EC (mitotic index 0.5) [2]	IC50 [3]	ILS at 300 mg/kg [1]	also measured
CCOC(=O)Nc1cc2c(c(N)n1)N=C(c1ccccc1)CO2 [a]	0.56 µM	225 nM		ILS at 100 mg/kg [1]: 44%; ILS at 200 mg/kg [1]: 80%
CCOC(=O)Nc1cc2c(c(N)n1)N=C(c1ccc3ccccc3c1)CS2 [o]	3 µM	580 nM	5%	
CCOC(=O)Nc1cc2c(c(N)n1)N=C(c1ccccc1)CS2 [j]	10 µM	6100 nM	0%	
CCOC(=O)Nc1cc2c(c(N=CN(C)C)n1)N=C(c1ccccc1)CO2 [p]	0.78 µM	310 nM		
CCOC(=O)Nc1cc2c(c(N)n1)N=C(c1ccccc1)C(C)O2 (stereo not shown) [b]	0.49 µM	110 nM		ILS at 100 mg/kg [1]: 50%
CCOC(=O)Nc1cc2c(c(N)n1)N=C1c3ccccc3CCC1O2 (stereo not shown) [d]		> 300 nM	32%	
CCOC(=O)Nc1cc2c(c(N)n1)N=C(c1ccc(OC)cc1)CS2 [n]	4.9 µM	340 nM	3%	
CCOC(=O)Nc1cc2c(c(N)n1)N=C(c1cccc(OC)c1)CS2 [m]	2 µM	530 nM		ILS at 75 mg/kg ([1]; 75 mg/kg): 3%
CCOC(=O)Nc1cc2c(c(N)n1)N=C(c1ccccc1)C(C)(C)S2 [l]		> 10000 nM		
CCOC(=O)Nc1cc2c(c(N)n1)N=C(c1ccc([N+](=O)[O-])cc1)CO2 [i]		> 3000 nM	0%	
CCOC(=O)Nc1cc2c(c(N)n1)N=C(c1ccc(Cl)cc1)CO2 [h]		> 3000 nM	0%	
CCOC(=O)Nc1cc2c(c(NC(=O)CBr)n1)N=C(c1ccccc1)CO2 [q]	11 µM	2200 nM		
CCOC(=O)Nc1cc2oc(=O)c(-c3ccccc3)nc2c(N)n1 [e]		> 3000 nM	0%	
CCOC(=O)Nc1cc2c(c(N)n1)N=C(c1ccccc1)C(C)S2 (stereo not shown) [k]	9.6 µM	1600 nM		ILS at 150 mg/kg ([1]; 150 mg/kg): 10%
CCOC(=O)Nc1cc2c(c(N)n1)N=C(c1cccc(OC)c1)CO2 [f]	0.1 µM	52 nM		ILS at 50 mg/kg ([1]; 50 mg/kg): 73%
CCOC(=O)Nc1cc2c(c(N)n1)N=C(c1cc(OC)c(OC)c(OC)c1)CO2 [g]		> 3000 nM	0%	
CCOC(=O)Nc1cc2c(c(N)n1)N=C(c1ccccc1)C(c1ccccc1)O2 (stereo not shown) [c]	3 µM	880 nM		ILS at 200 mg/kg [1]: 2%
